{"source": "paper PMC5805526", "about": "“ZB716, a steroidal selective estrogen receptor degrader (SERD), is orally efficacious in blocking tumor growth in mouse xenograft models” (Oncotarget, 2018)", "key": {"[1]": {"assay": "Pharmacokinetic study in rats, single oral dose", "assay_type": "in vivo, Sprague-Dawley rats", "settings": "rat; for concentration at 1 h / concentration at 3 h / concentration at 6 h / concentration at 8 h / concentration at 24 h: oral, read-out: Rat plasma concentration of ZB716 after a single oral dose", "protocol": "Female Sprague-Dawley rats, weighing between 350 and 400 g (Charles River Laboratories, Portage, MI) were used for the pharmacokinetic study on ZB716. Rats were given oral gavage containing 5% dimethyl sulfoxide (DMSO), 40% polyethylene glycol 400, 55% saline-dissolved ZB716, at doses ranging from 1 mg/kg to 20 mg/kg. After drug administration, blood samples were collected from the lateral tail vein of the rat at 1, 3, 6, 8, 24 h. Rat blood was collected with a capillary into 1.5 mL microcentrifuge tubes containing 0.01 mL of 10 % EDTA anticoagulant. Plasma was then separated from cell pellets by centrifugation in a refrigerated centrifuge at 4°C and transferred to a separate tube. Plasma samples were frozen at −80°C until analysis.\n(§1) The plasma samples of 100 μL each were processed for analysis by a TSQ UPLC-MS/MS system. Aliquots of 10 μL of 0.5 ng/μl E-Tamoxifen-2C^13, N^15, 200 μL methanol, and 400 μl chloroform were added to the plasma in a 1.5 mL centrifuge tube in sequence. The sample was vortexed and stored at −20°C for 4 hours, followed by sonication in a Branson B3510MT Ultrasonic Cleaners for 30 min and centrifuged at 12000 RPM on a Heraeus Fresco 21 Refrigerated Micro Centrifuge from Thermo Fisher Scientific for 10 min. The supernatant was dried with a nitrogen gas flow and suspended in 100 μL methanol. Aliquots of 10 μL of the above processed samples were injected into a TSQ Vantage mass spectrometer connected with a heated electrospray ionization probe and a Dionex Ultimat 3000 UHPLC with a Hypersil gold column (50×2.1 mm). The probe setting and front mass spectrometer setting were controlled as follows: spray voltage 3200 voltage, auxiliary gas 10psi, vaporizer temperature 365°C, capillary temperature 300°C, sheath gas 30psi, S-lens RF amplitude 51 voltage. The flow gradient was started with initial 30% mobile phase A of water with 0.05% formic acid to 1 min, to 100% mobile phase B of acetonitrile with 0.05% formic acid at 8 min, and return to 30% mobile phase A at 13 min."}, "[2]": {"parameters": "method as in PMID 27529700", "settings": "mice; cited from earlier work"}, "[3]": {"test_system": "mutant ER (Y537S ESR1)", "assay": "ER downregulation in T47D/Y537S cells (Wes Simple Western)", "assay_type": "cell-based", "settings": "T47D/Y537S", "from_the_text": "(§2) IC50 values were obtained from dose-response curves for all treatments."}, "[4]": {"target": "T1, mutant ER (Y537S ESR1) (Homo sapiens, UniProt P03372, Y537S)", "T1 construct": "added to the C terminus of full-length wild-type and mutant (Y537S) ESR1 by PCR amplification; expressed in transfected cells; host or cells: T47D, lentiviral transduction with pFLRu-FH and puromycin selection", "T1 sequence (P03372 1-595 Y537S)": "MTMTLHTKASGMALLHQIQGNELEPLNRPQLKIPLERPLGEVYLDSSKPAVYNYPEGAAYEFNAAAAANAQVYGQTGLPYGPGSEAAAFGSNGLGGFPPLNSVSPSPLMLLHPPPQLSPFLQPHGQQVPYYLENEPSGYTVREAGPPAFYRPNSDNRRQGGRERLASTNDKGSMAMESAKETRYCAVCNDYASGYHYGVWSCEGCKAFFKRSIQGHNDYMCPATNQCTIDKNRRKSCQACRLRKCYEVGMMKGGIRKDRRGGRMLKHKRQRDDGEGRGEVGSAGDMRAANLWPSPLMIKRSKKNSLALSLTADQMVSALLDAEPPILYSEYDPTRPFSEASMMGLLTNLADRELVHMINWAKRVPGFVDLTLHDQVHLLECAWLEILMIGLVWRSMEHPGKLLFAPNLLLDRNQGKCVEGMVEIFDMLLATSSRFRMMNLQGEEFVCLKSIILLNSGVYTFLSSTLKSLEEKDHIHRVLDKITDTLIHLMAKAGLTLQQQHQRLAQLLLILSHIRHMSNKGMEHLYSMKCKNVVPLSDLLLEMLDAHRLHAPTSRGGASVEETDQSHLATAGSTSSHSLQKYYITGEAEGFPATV", "assay": "ER downregulation in T47D/Y537S cells (Wes Simple Western)", "assay_type": "cell-based", "settings": "four hours treatment, ERα normalized to actin; read-out: IC50, ER downregulation in T47D/Y537S cells", "from_the_text": "as §2"}, "[5]": {"test_system": "MCF-7 human breast cancer xenograft", "assay": "Efficacy in MCF-7 xenograft tumor model", "assay_type": "in vivo, Nu/Nu mice", "settings": "ZB716 at both 10 mg/kg and 30 mg/kg by oral gavage, three weeks", "quoted_text": "Four to six weeks old female ovariectomized Nu/Nu mice were purchased from Charles River Laboratories (Wilmington, MA). MCF-7 cells were cultured and harvested in the exponential growth phase using a PBS/EDTA solution. The animals were injected bilaterally in the mammary fat pad (MFP) with 5×10^6 viable cells suspended in 50 μL sterile PBS mixed with 100 μL Matrigel (reduced factor; BD Biosciences, Bed- ford, MA). 17b-Estradiol pellets (0.72 mg, 60 day release; Innovative Research of America, Sarasota, FL) were implanted subcutaneously in the lateral area of the neck using a precision trochar (10 gages) at the time of cell injection. Tumors were allowed to form and at day 15 post cell injection mice. […] Tumor sizes were monitored and recorded every other day for three weeks of treatment duration."}, "[6]": {"test_system": "ERα", "parameters": "method as in PMID 27529700", "settings": "read-out: binding affinity to ERα, EC50; cited from earlier work"}, "[7]": {"assay": "Drug concentrations in final plasma and tumor tissue of MCF-7 xenograft mice", "assay_type": "in vivo", "settings": "for concentration at 3 weeks: female, Nu/Nu, mouse, end of study", "protocol": "as §1"}, "[8]": {"test_system": "T47D/Y537S breast cancer cells", "assay": "T47D/Y537S ESR1 mutant cell growth inhibition", "assay_type": "cell-based", "settings": "Homo sapiens, 120 h, 5 days treatment", "from_the_text": "Wild-type ESR1, the Y537S ESR1 mutant were fused to a FLAG tag at their C-termini and cloned into the lentiviral vector pFLRu-FH [30]. Y537S mutation was first introduced into ESR1 using the QuikChange II XL Site-Directed Mutagenesis Kit (Agilent) with an ESR1-encoding plasmid (Accession number NM_000125.1, GeneCopoeia Inc.) as the template. […] To make lentiviral particles, pFLRu-FH vector DNAs (encoding ESR1(wt) and ESR1(Y537S)) were cotransfected with the packaging plasmids into HEK293T cells using Fugene 6 (Roche). At 48 hours post transfection, culture media containing different viruses were added to T47D cells in the presence of polybrene followed by 3-day puromycin selection for stable expression.\nViable cell numbers were counted with a Z Series Coulter Counter instrument (Beckman-Coulter) following manufacturer's instructions. […] IC50 values were obtained from dose-response curves for all treatments."}, "[9]": {"settings": "female, Sprague-Dawley, plasma, 1 mg/kg"}, "[10]": {"settings": "female, Sprague-Dawley, plasma, 5 mg/kg"}, "[11]": {"settings": "female, Sprague-Dawley, plasma, 10 mg/kg"}, "[12]": {"settings": "female, Sprague-Dawley, plasma, 20 mg/kg"}}, "note": "Several values for one entry are separate records, joined by “and”; a condition that tells them apart may be missing. Equal values may be shown once. Read-outs that look alike come from different tables or passages of the source.", "data": [{"smiles": "C[C@]12CC[C@@H]3c4ccc(B(O)O)cc4C[C@@H](CCCCCCCCC[S+]([O-])CCCC(F)(F)C(F)(F)F)[C@H]3[C@@H]1CC[C@@H]2O", "note": "(stereo partly drawn) [ZB716]", "values": [{"measurement": "concentration at 1 h", "setting": "[1]; [9]", "result": "14.8 ± 6.51", "unit": "ng/mL"}, {"measurement": "concentration at 3 h", "setting": "[1]; [9]", "result": "9.23 ± 2.33", "unit": "ng/mL"}, {"measurement": "concentration at 6 h", "setting": "[1]; [9]", "result": "4.7 ± 1.66", "unit": "ng/mL"}, {"measurement": "concentration at 8 h", "setting": "[1]; [9]", "result": "4.42 ± 2.38", "unit": "ng/mL"}, {"measurement": "concentration at 24 h", "setting": "[1]; [9]", "result": "1.36 ± 1.42", "unit": "ng/mL"}, {"measurement": "concentration at 1 h", "setting": "[1]; [10]", "result": "46.5 ± 4.81", "unit": "ng/mL"}, {"measurement": "concentration at 3 h", "setting": "[1]; [10]", "result": "23.4 ± 2.8", "unit": "ng/mL"}, {"measurement": "concentration at 6 h", "setting": "[1]; [10]", "result": "15.9 ± 2.03", "unit": "ng/mL"}, {"measurement": "concentration at 8 h", "setting": "[1]; [10]", "result": "11.4 ± 0.52", "unit": "ng/mL"}, {"measurement": "concentration at 24 h", "setting": "[1]; [10]", "result": "9.37 ± 1.24", "unit": "ng/mL"}, {"measurement": "concentration at 1 h", "setting": "[1]; [11]", "result": "218 ± 27.8", "unit": "ng/mL"}, {"measurement": "concentration at 3 h", "setting": "[1]; [11]", "result": "93.6 ± 21.8", "unit": "ng/mL"}, {"measurement": "concentration at 6 h", "setting": "[1]; [11]", "result": "62 ± 14.9", "unit": "ng/mL"}, {"measurement": "concentration at 8 h", "setting": "[1]; [11]", "result": "60.7 ± 13.9", "unit": "ng/mL"}, {"measurement": "concentration at 24 h", "setting": "[1]; [11]", "result": "33.1 ± 10.6", "unit": "ng/mL"}, {"measurement": "concentration at 1 h", "setting": "[1]; [12]", "result": "1040 ± 153", "unit": "ng/mL"}, {"measurement": "concentration at 3 h", "setting": "[1]; [12]", "result": "671 ± 125", "unit": "ng/mL"}, {"measurement": "concentration at 6 h", "setting": "[1]; [12]", "result": "371 ± 111", "unit": "ng/mL"}, {"measurement": "concentration at 8 h", "setting": "[1]; [12]", "result": "300 ± 118", "unit": "ng/mL"}, {"measurement": "concentration at 24 h", "setting": "[1]; [12]", "result": "98.5 ± 36.1", "unit": "ng/mL"}, {"measurement": "Tmax", "setting": "[1]; female, Sprague-Dawley, plasma, all four oral doses (1, 5, 10, 20 mg/kg), read-out: time of peak concentration in rat plasma", "result": 1, "unit": "h"}, {"measurement": "peak plasma concentration", "setting": "[1]; 20 mg/kg oral, 20 mg/kg", "result": "over 1000 ng/mL and > 1.6 μM"}, {"measurement": "plasma peak concentration after single-dose oral gavage relative to same-dose fulvestrant s.c.", "setting": "[2]", "result": "over 10 times"}, {"measurement": "drug concentration for 50% downregulation of mutant ER relative to wild type", "setting": "[3]", "result": "about 10 times"}, {"measurement": "DC50", "setting": "[4]", "result": 24, "unit": "nM"}, {"measurement": "tumor growth in MCF-7 xenograft", "setting": "[5]", "result": "complete blockage of tumor growth"}, {"measurement": "EC50", "setting": "[6]", "result": 4.1, "unit": "nM"}, {"measurement": "drug accumulation in tumor tissue relative to fulvestrant treated mice", "setting": "[7]; ZB716 10 mg/kg dose group", "result": 4, "unit": "fold"}, {"measurement": "final plasma concentration relative to fulvestrant treatment group", "setting": "[7]; ZB716 10 mg/kg dose group", "result": "over 6 fold"}, {"measurement": "drug concentration in tumor tissue relative to fulvestrant treated mice", "setting": "[7]; ZB716 30 mg/kg dose group", "result": 10, "unit": "fold"}, {"measurement": "final plasma concentration relative to fulvestrant treatment group", "setting": "[7]; ZB716 30 mg/kg dose group", "result": "> 20", "unit": "fold"}, {"measurement": "concentration at 3 weeks", "setting": "[7]; plasma, treatment ZB716 10 mg/kg daily PO, read-out: Average concentration in final plasma", "result": 182, "unit": "ng/mL"}, {"measurement": "concentration at 3 weeks", "setting": "[7]; plasma, treatment ZB716 30 mg/kg daily PO, read-out: Average concentration in final plasma", "result": 692, "unit": "ng/mL"}, {"measurement": "concentration at 3 weeks", "setting": "[7]; tumor tissue, treatment ZB716 10 mg/kg daily PO, read-out: Average concentration in tumor tissue", "result": 506, "unit": "ng/mL"}, {"measurement": "concentration at 3 weeks", "setting": "[7]; tumor tissue, treatment ZB716 30 mg/kg daily PO, read-out: Average concentration in tumor tissue", "result": 1540, "unit": "ng/mL"}, {"measurement": "IC50", "setting": "[8]", "result": 24.4, "unit": "nM"}]}]}
